TGI data for eight compounds are collected here from PubChem BioAssay (NCI).

Each structure is given as a SMILES string.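 Values below derive from 48-hour exposures of cells grown in 96-well plates, with endpoints linearly interpolated between the two concentrations bracketing the appropriate inhibition level. Definition used: TGI = concentration required for complete inhibition of growth.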 Some results are limits rather than exact numbers.

Some test systems named below: SNB-75 CNS; HOP-92 NSCLC; RXF 393 renal; MDA-MB-435; A498 renal; HS 578T breast; SR leukemia; OVCAR-5 ovarian; HCT-15 colon; ACHN renal; 786-0 renal; SF-268 CNS; PC-3 prostate; TK-10 renal; NCI/ADR-RES ovarian; M14 melanoma; DU-145 prostate; CAKI-1 renal; BT-549 breast; NCI-H226 lung.
Common to all, as to assay: inhibition of tumour cell growth, NCI panel, 48 h

On to `O=C1c2c(ccc3c2CCCC3)CC12Cc1ccc3c(c1C2=O)CCCC3`, for which the TGI in the test with SNB-75 CNS, with HOP-92 NSCLC, in the test on RXF 393 renal, in the test on MDA-MB-435, in the test with A498 renal and in the test on HS 578T breast was greater than 100 µM each time. The TGI in the test on SR leukemia, in the test on OVCAR-5 ovarian, with HCT-15 colon, in the test with ACHN renal, with 786-0 renal and with SF-268 CNS was greater than 100 µM each time. The TGI in the test with PC-3 prostate, in the test on TK-10 renal, in the test on NCI/ADR-RES ovarian, in the test with M14 melanoma and in the test with DU-145 prostate was greater than 100 µM in each case.

Consider `NC1CC(=O)c2sc(I)cc21` (stereo not given), for which the TGI with SNB-75 CNS, in the test with RXF 393 renal, in the test with MDA-MB-435, with A498 renal, in the test with CAKI-1 renal and in the test on SR leukemia was greater than 100 µM each time. Besides, the TGI in the test with OVCAR-5 ovarian, with HCT-15 colon, in the test on ACHN renal, in the test with 786-0 renal, in the test with SF-268 CNS and in the test on PC-3 prostate was greater than 100 µM each time. The TGI in the test on TK-10 renal, in the test on BT-549 breast, in the test on NCI/ADR-RES ovarian, with M14 melanoma and with DU-145 prostate was greater than 100 µM throughout.

On to `O=C(c1cccc2ccccc12)C1(Br)S(=O)(=O)OCCOS1(=O)=O`, for which the TGI in the test with MDA-MB-435, with CAKI-1 renal, in the test on SR leukemia, in the test with OVCAR-5 ovarian, in the test with HCT-15 colon and in the test on ACHN renal was greater than 100 µM each time. Also, the TGI in the test on 786-0 renal, with TK-10 renal, with BT-549 breast, in the test on NCI/ADR-RES ovarian, in the test on M14 melanoma and in the test with DU-145 prostate was greater than 100 µM each time.

`CCOC(=O)C(=[N+]=[N-])C(=O)C1(C(=O)OCC)CCN(C(=O)c2ccccc2)C1=O` (stereo not given): the TGI with SNB-75 CNS, in the test with HOP-92 NSCLC, with RXF 393 renal, in the test on A498 renal, in the test on NCI-H226 lung and with CAKI-1 renal was greater than 100 µM in each case. The TGI in the test with HS 578T breast, with OVCAR-5 ovarian, with HCT-15 colon, with ACHN renal, in the test with 786-0 renal and in the test with SF-268 CNS was greater than 100 µM each time. Moreover, the TGI in the test on PC-3 prostate, in the test on TK-10 renal, in the test with NCI/ADR-RES ovarian, with M14 melanoma and in the test on DU-145 prostate was greater than 100 µM throughout.

Take `CC12CCC(CC1=O)C2(C)CCC(N)=O` (stereo not given): the TGI in the test on RXF 393 renal, in the test with MDA-MB-435, in the test on A498 renal, in the test with NCI-H226 lung, in the test on CAKI-1 renal and in the test on HS 578T breast was greater than 100 µM throughout. In addition, the TGI with OVCAR-5 ovarian, in the test on HCT-15 colon, in the test with ACHN renal, in the test with 786-0 renal, in the test with SF-268 CNS and with PC-3 prostate was greater than 100 µM each time. The TGI with TK-10 renal, with BT-549 breast, in the test on NCI/ADR-RES ovarian, in the test on M14 melanoma and with DU-145 prostate was greater than 100 µM each time.

As to `CN(C)CCCNC(=O)CCNC(=O)c1cc(NC(=O)c2cc(NC(=O)c3cc(NC(=O)c4nc(NC(=O)CCCNC(=O)c5cc(NC(=O)c6cc(NC(=O)c7cc(NC(=O)c8nccn8C)cn7C)cn6C)cn5C)cn4C)cn3C)cn2C)cn1C`, the TGI in the test with SNB-75 CNS, with HOP-92 NSCLC, in the test on RXF 393 renal, in the test on MDA-MB-435, in the test on A498 renal and in the test with NCI-H226 lung was greater than 100 µM each time. For the same compound, the TGI in the test with CAKI-1 renal, in the test with HS 578T breast, with SR leukemia, with OVCAR-5 ovarian, in the test with HCT-15 colon and with ACHN renal was greater than 100 µM throughout. Moreover, the TGI with 786-0 renal, in the test on SF-268 CNS, in the test on PC-3 prostate, with TK-10 renal, in the test with NCI/ADR-RES ovarian and in the test on M14 melanoma was greater than 100 µM each time. In addition, the TGI with DU-145 prostate was greater than 100 µM.

Consider `COC(O)C(=O)c1c2c(cc3c1CC1(Cc4cc5c(cc4C1)CCC5)C3)CCC2` (stereo not given), for which the TGI in the test with SNB-75 CNS turned out to be 31.6 µM; in the test on HOP-92 NSCLC it was 31 µM; with RXF 393 renal it was 29 µM; in the test on MDA-MB-435, 6.58 µM; in the test with A498 renal it was 31.8 µM; in the test on CAKI-1 renal, 37.4 µM. Further, the TGI in the test with HS 578T breast was 53.3 µM; in the test with SR leukemia, 15.1 µM; in the test on OVCAR-5 ovarian, 33.5 µM; with HCT-15 colon it was 39.8 µM; in the test on ACHN renal it was 29.3 µM; with 786-0 renal, 27 µM. The TGI in the test on SF-268 CNS was found to be 36.1 µM; in the test on PC-3 prostate, 30.8 µM; in the test on TK-10 renal, 32.1 µM; in the test with NCI/ADR-RES ovarian it was 34 µM; in the test on M14 melanoma, 31 µM; with DU-145 prostate, 33.7 µM.

On to `O=C(/C=C(\O)c1ccccc1)C(=O)NNc1ccc([N+](=O)[O-])cc1[N+](=O)[O-]`, for which the TGI with SNB-75 CNS was 30.9 µM; with RXF 393 renal, 35 µM; in the test on MDA-MB-435, greater than 100 µM; with A498 renal, 70.4 µM; with NCI-H226 lung, 50.4 µM; with CAKI-1 renal, 43.1 µM. Also, the TGI turned out to be 43.6 µM in the test on SR leukemia; 58.7 µM in the test with OVCAR-5 ovarian; 35.4 µM with HCT-15 colon; 66.5 µM in the test on ACHN renal; 25.9 µM in the test with 786-0 renal; 37.8 µM with SF-268 CNS. For the same compound, the TGI in the test on PC-3 prostate was determined as 44.9 µM; with TK-10 renal, 49 µM; in the test with BT-549 breast, 48.2 µM; in the test on NCI/ADR-RES ovarian, 36.6 µM; in the test on M14 melanoma it was 31.3 µM; in the test on DU-145 prostate, 32.9 µM.
